Experiments:
Assay type in all cases: biochemical
[1] = target: T1, Recombinant human cathepsin K (Homo sapiens, UniProt P43235); assay: Kinetic measurements, hydrolysis of the fluorogenic substrate Z-FR↓AMC (general modifier mechanism); parameters: key to α (coefficient, effect of modifier on the affinity for the substrate) / β (coefficient, effect of modifier on the catalytic rate): dimensionless coefficients multiplying KS (α) and kcat (β); conditions: for Z-FRAMC: geometric mean of residual activities (vA): at 0.1×Km and 10×Km substrate, modifier 10×KA, calculated with Equation 1 from α and β of Table 3, unmodified enzyme = 1.00; for β (coefficient, effect of modifier on the catalytic rate) / Kd / α (coefficient, effect of modifier on the affinity for the substrate) / Kinetic mechanism of modification: substrate Z-FR↓AMC; for β (coefficient, effect of modifier on the catalytic rate) / Kd / α (coefficient, effect of modifier on the affinity for the substrate): pH 5.50, 25°C, 0.5 nM enzyme; for Kd: read-out: K A (equilibrium dissociation constant of the EA complex); for Kinetic mechanism of modification: from combinations of α and β
T1 construct: made in house
T1 sequence (P43235 115-329): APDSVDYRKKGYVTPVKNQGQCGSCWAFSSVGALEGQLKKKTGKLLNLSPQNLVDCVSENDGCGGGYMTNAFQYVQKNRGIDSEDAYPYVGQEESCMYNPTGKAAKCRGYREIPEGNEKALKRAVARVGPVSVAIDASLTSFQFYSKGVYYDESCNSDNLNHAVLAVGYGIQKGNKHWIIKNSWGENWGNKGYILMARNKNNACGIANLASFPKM
Method: All modifiers were tested for their effect on the hydrolysis of the low molecular mass synthetic substrate Z-FR↓AMC. Since all progress curves were linear from the beginning of the reaction, initial velocities were calculated from the slopes by linear regression. […] The basic mechanism considered for the analysis of the interactions was the general modifier mechanism shown in Figure 2, in which the effect of modifier is determined by the values of the coefficients α and β that multiply the kinetic parameters K S, K A (α) and k cat (β). In the thermodynamic box embodied in Figure 2, the reciprocal of the coefficient α represents the allosteric coupling constant that characterizes energy linkage between the modifier and the substrate, while a […] represents the effect exerted by the modifier on catalysis. The specific velocity plot was used for the primary screening of the kinetic behavior of the modifiers (Equation 2), as it allows an immediate judgment of the type of interaction and to gather preliminary estimates of the coefficients α and β, as well as of the dissociation constant of the modifier. Refinement was then performed by fitting the rate Equation 1 to data.
Figure 3 Kinetic mechanisms of the identified modifiers. All compounds were characterized by a combination of specific velocity plots (upper panels) and titration curves recorded at fixed substrate concentrations (lower panels). All experiments were performed at 25±1°C in 100 mM sodium acetate buffer pH 5.50 containing 1 mM EDTA and 2.5 mM DTT using the fluorogenic substrate Z-FR↓AMC and at a final enzyme concentration of 0.5 nM.
All kinetic measurements were performed in 100 mM sodium acetate buffer pH 5.50 containing 1 mM EDTA and 2.5 mM dithiothreitol (DTT) in single-use acrylic cuvettes (1×1 cm) thermostatted at 25±1°C with magnetic stirring. The hydrolysis of Z-FR↓AMC was followed fluorometrically at λex 383 nm and λem 455 nm. All tested modifiers were analyzed spectroscopically to determine their absorption properties under the conditions used in the assays. When necessary, appropriate corrections were made to the calculated reaction rates to take into account the inner filter effect.
The effects of the modifiers on enzymatic activity were analyzed with the general modifier mechanism which describes the interaction between enzyme (E), substrate (S) and modifier (A), as shown in Figure 2. Assuming that binding of A to E and ES is at quasi-equilibrium and that steady-state conditions are established in the fluxes around ES and ESA (i.e. the catalytic steps), the reaction rate for the mechanism in Figure 2 is defined by Equation 1: [drawing 2] (1) where v 0 is the reaction rate in the absence of modifier, K A is the equilibrium dissociation constant of the EA complex, α and β are dimensionless coefficients and σ = [S]/K m, approximated to [S]/K s. To determine the mechanism of interaction, plot the kinetic data and calculate preliminary values of the interaction parameters, the specific velocity plot was used. For this purpose, Equation 1 is rewritten as:
The plot of v 0/v A versus σ/(1+σ) produces straight lines with intersection points at v 0/v A = 1, regardless of the interaction mechanism. The parameters α, β and K A are determined by replotting the extrapolated values of the straight lines at σ/(1+σ) = 0 (a) and σ/(1+σ) = 1 (b) versus 1/[A] in the form: [drawing 4] (3) [drawing 5] (4)

[2] = target: T1, Recombinant human cathepsin K; assay: Azocasein degradation assays; conditions: for IC 50 relative to K A: azocasein IC50 versus K A with Z-FR↓AMC; for IC50: azocasein degradation; for remaining activity: pH 5.5, substrate azocasein 3 mg/ml, 0.1 µM cathepsin K, 30 min 37°C, pH 5.50, read-out: Residual activity; for remaining activity / Effect on azocasein degradation: compounds up to 2 mM (compound 2: 1 mM); for azocasein: fraction of residual enzyme activity: value of 1 equals the activity of unmodified enzyme, activity modification matrix
Excerpt: Figure 4 Effect of modifiers on the degradation of macromolecular substrates. (A) Effect of increasing concentrations of compounds 1 and 2 on the degradation of calf skin collagen. Molecular mass standards are given in kDa and positions of α, β and γ chains of intact collagen are marked by arrows. (B) Effect of modifiers on azocasein degradation. (C) Effect of glycosaminoglycans and clusterin on azocasein degradation. Two different concentrations of each glycosaminoglycan were used in the experiments (10 µg/ml and 200 µg/ml). Error bars in panels B and C represent the SEM of three experiments. All experiments were performed in 100 mM sodium acetate buffer pH 5.50 containing 1 mM EDTA and 5 mM DTT, as described in detail in the Materials and Methods section. Abbreviations: CPD – compound, CS – chondroitin sulfate, DS – dermatan sulfate, HP – heparin.
Azocasein (Sigma-Aldrich, USA) was dissolved in 100 mM sodium acetate buffer pH 5.50 containing 1 mM EDTA and 5 mM DTT at a concentration of 3 mg/ml. Samples were incubated with 0.1 µM cathepsin K for 30 min at 37°C in the presence of each compound. […] Reactions were stopped by addition of trichloroacetic acid (final concentration 5% v/v), centrifuged, clear supernatants mixed with 0.5 M NaOH and the concentrations of solubilized peptides determined by measuring the absorbance at 440 nm. All experiments were performed in triplicates and appropriate blanks were run to take into account the absorption of azocasein and compounds alone. IC 50 values were determined as described previously.

[3] = target: T1, Recombinant human cathepsin K; assay: Collagenolytic assays (calf skin collagen, SDS-PAGE); parameters: key to collagen: qualitative value: qualitative values of 1 and 0 were used to signify inhibition and lack thereof, respectively; qualitative values of 1 and 0 were used to signify inhibition and lack thereof, respectively; a value of -1 was used to describe the concentration-dependent roles of glycosaminoglycans; conditions: for collagen: qualitative value: activity modification matrix
Method: The use of synthetic substrates is practical for the determination of the mechanisms of modification. […] Therefore, all modifiers were also tested with two macromolecular substrates, calf skin collagen and azocasein. The collagenolytic activity was tested quantitatively by following the fragmentation of the characteristic type I collagen pattern into smaller products on SDS-PAGE after incubation of the samples with cathepsin K in the presence and absence of modifiers.
Soluble calf skin collagen (Worthington Biochemical Corporation, USA) was diluted in 100 mM sodium acetate buffer pH 5.50 containing 1 mM EDTA and 5 mM DTT to a final concentration of 0.5 mg/ml. Experiments were started by addition of cathepsin K (final enzyme concentration 0.6 µM) to the reaction mixture containing collagen and increasing concentrations of modifier. All assays were performed at 28°C with shaking on an Eppendorf Thermomixer Comfort. Samples were incubated for 2 hours and the reactions then blocked by addition of E-64 to a final concentration of 1 µM. 10 µg of digested collagen were analyzed by SDS-PAGE on 8% polyacrylamide gels and protein bands visualized by Coomassie Brilliant Blue R-250 staining.

[4] = target: T1, Recombinant human cathepsin K; assay: Thermal stability of cathepsin K at pH 7.4 in the presence of modifiers; conditions: for stability: ln(sf), sf = ratio of half-lives in the presence and absence of modifier: 37 °C and pH 7.4
Method: Cathepsin K was incubated at 37°C in 50 mM Hepes buffer pH 7.40 containing 1 mM EDTA and 5 mM DTT in the presence or absence of each modifier. The final enzyme concentration was 0.2 µM and final compounds concentrations were 2 mM, except compound 2, which was used at a concentration of 1 mM. All experiments were performed in Eppendorf Protein LoBind Tubes to minimize the adsorption of proteins on tube walls. Aliquots were withdrawn from the reaction mixtures at regular time intervals and their residual activity measured using the substrate Z-FR↓AMC (5 µM final concentration). Inactivation curves had exponential profiles that were fitted with the mathematical model for one-phase exponential decay to determine the half-life of the enzyme in each reaction mixture.

[5] = substrate calf skin collagen 0.5 mg/ml, 0.6 µM cathepsin K, 2 hours 28°C, pH 5.50, estimated

| Z-FRAMC: geometric mean of residual activities (vA) [1] | β (coefficient, effect of modifier on the catalytic rate) [1] | Kd [1] [µM] | IC 50 relative to K A [2] | IC50 [2] [µM] | remaining activity [2] [%] | azocasein: fraction of residual enzyme activity [2] | collagen: qualitative value [3] | stability: ln(sf), sf = ratio of half-lives in the presence and absence of modifier [4] | α (coefficient, effect of modifier on the affinity for the substrate) [1] | IC50 [3, 5] | Effect on azocasein degradation [2] | SMILES | Kinetic mechanism of modification [1] | other results |
| --- | --- | --- | --- | --- | --- | --- | --- | --- | --- | --- | --- | --- | --- | --- |
| 0.70 | 1.5±0.3 | 100 ± 40 | – | – | 90 ± 3 | – | 0 | 0.41 | 5.6±1.2 | n.i. | – | O=C(O)C(Cc1ccccc1-c1ccccc1)C(=O)O [Compound 4, (2-Biphenylylmethyl) malonic acid] | hyperbolic mixed modifiers with a dual behavior as inhibitors or activators depending on substrate concentration | α (coefficient, effect of modifier on the affinity for the substrate) ([1]; listed as compound 4): > 1; β (coefficient, effect of modifier on the catalytic rate) ([1]; listed as compound 4): > 1 |
| 0.60 | 0.31±0.06 | 1100 ± 200 | – | – | 101 ± 3 | 1.04 | 0 | 0.02 | 0.31±0.06 | n.i. | ineffective | COC(=O)CNC1CC(=O)N(c2ccc(OC)cc2)C1=O (stereo not drawn) [Compound 8, Methyl N-[1-(4-methoxyphenyl)-2,5-dioxopyrrolidin-3-yl]glycinate] | hyperbolic mixed inhibitors with uncompetitive character | α (coefficient, effect of modifier on the affinity for the substrate) ([1]; listed as compound 8): < 1; β (coefficient, effect of modifier on the catalytic rate) ([1]; listed as compound 8): < 1 |

The next lines start with the compound.

| SMILES | Z-FRAMC: geometric mean of residual activities (vA) [1] | β (coefficient, effect of modifier on the catalytic rate) [1] | Kd [1] [µM] | IC 50 relative to K A [2] | IC50 [2] [µM] | remaining activity [2] [%] | azocasein: fraction of residual enzyme activity [2] | collagen: qualitative value [3] | stability: ln(sf), sf = ratio of half-lives in the presence and absence of modifier [4] | α (coefficient, effect of modifier on the affinity for the substrate) [1] | IC50 [3, 5] | Effect on azocasein degradation [2] | Kinetic mechanism of modification [1] | other results |
| --- | --- | --- | --- | --- | --- | --- | --- | --- | --- | --- | --- | --- | --- | --- |
| Nc1cc(C(=O)O)ccc1NCC1CCCO1 (stereo not drawn) [Compound 1, 3-Amino-4-[(tetrahydro-2-furanylmethyl)amino] benzoic acid] | 0.37 | 0.55±0.25 | 190 ± 20 | about 4 fold | 730 ± 190 | 74 ± 9 | 0.74 | 1 | 0.74 | – | – | – | – | Effect on degradation of calf skin collagen ([3]; SDS-PAGE, increasing concentrations of modifier): concentration-dependent inhibitory effect; IC50 ([3]; degradation of calf skin collagen, read-out: IC 50 (estimated)): ~1 mM; IC50 ([3]; substrate calf skin collagen 0.5 mg/ml, 0.6 µM cathepsin K, 2 hours 28°C, pH 5.50, estimated, read-out: IC 50): 1 mM; Increase of stability (half-life) of cathepsin K ([4]; pH 7.4, 37°C, versus enzyme only): about 2 fold |
| O=C(Nc1ccc(C(=O)O)c(O)c1)c1ccccc1 [Compound 3, N-Benzoyl-p-aminosalicylic acid] | 0.42 | – | 110 ± 20 | – | – | 86 ± 4 | – | 0 | 0.26 | 1.7±0.5 | n.i. | – | – | – |
| O=C(O)c1ccccc1C(=O)Nc1cccc([N+](=O)[O-])c1 [Compound 7, 2-[(3-Nitrophenyl)carbamoyl]benzoic acid] | 0.48 | 0.19±0.03 | 290 ± 20 | – | – | 104 ± 5 | 1.01 | 0 | 0.47 | 0.19±0.03 | n.i. | ineffective | hyperbolic mixed inhibitors with uncompetitive character | α (coefficient, effect of modifier on the affinity for the substrate) ([1]; listed as compound 7): < 1; β (coefficient, effect of modifier on the catalytic rate) ([1]; listed as compound 7): < 1 |
| NCC1CCN(CCc2ccccc2)CC1 [Compound 6, 1-[1-(2-Phenylethyl)-4-piperidinyl]-methanamine] | 0.65 | 1 | 270 ± 50 | about 4 fold | 1100 ± 240 | 77 ± 8 | 0.77 | 0 | 0.18 | 3.0±0.2 | n.i. | – | hyperbolic competitive inhibitor | – |
